Test results from patent publication US4119635A, “Substituted 1,2,4-triazole derivatives” (Gruppo Lepetit S.p.A., priority 1971, dated 1978).
Where two headings read alike, the source gives them in different places.

How the values were obtained:
mice [1] = assay: Spontaneous activity (S. Irwin scheme); type: in vivo; conditions: Mus musculus, ip, read-out: Decrease of spontaneous activity ED50
Excerpt: (§1) As stated before, the compounds of the invention have CNS depressant utility. More exactly, the compounds of Examples 1,2,3,5-10, 14, 31(42), 32(56), 34, 35 and 45(55) are useful as sedatives and hypnotics. These pharmacological properties were ascertained by following the operative scheme and the manipulation procedure described by S. Irwin in Psychopharmacologia (Berl.), 13, 222, 1968. Especially, there were studied the biological effects of the compounds on two of the parameters which are closely related to the above properties, namely the "spontaneous activity" and the "righting reflex". The effects of the compounds on these two parameters were expressed as ED50 values ie., the amount of compound tested which reduces the spontaneous activity and righting reflex scores of test animals to 50% of those of the controls. The scores are the same as those reported by S. Irwin in the cited paper. For each compound it was also determined the minimal dosis which produces complete hypnosis of the test animals (MHD).
(§2) The obtained results are summarized in the following table, which also reports the toxicities of the tested substances, expressed as LD50 values. For comparison purposes, also the activity of two known compounds was determined. The known compounds are 1-methyl-3,5-diphenyl-1,2,4-triazole (Compound A, Atkinson et al. Journ. Chem. Soc., 1954, 141, 1954) and 1-methyl-3-phenyl-5-(p-chlorophenyl)-1,2,4-triazole (Compound B, Huisgen et al., Journ. Org. Chem., 24, 892, 1959).

rats = assay: Secondary response avoidance test (G. Maffii), antianxiety effect; type: in vivo; conditions: 20 mg/kg i.p.
Description: The compounds of Examples 34 and 45(55) are also useful as anxiety relieving means. This property was investigated on the basis of the secondary response avoidance test, which was performed as described by G. Maffii, Journ. Pharm. Pharmacol., 11, 192, 1959.

Toxicity (LD50) = conditions: mouse, in vivo, ip
Description: as §2

mice [2] = assay: Minimal dosis which produces complete hypnosis (MHD); type: in vivo; conditions: Mus musculus, ip, read-out: Minimal hypnotic dosis
Excerpt: as §1

mice [3] = assay: Righting reflex (S. Irwin scheme); type: in vivo; conditions: Mus musculus, ip, read-out: Impairment of righting reflex ED50
Excerpt: as §1, §2

[4] = mice, dose reducing score to 50% of controls

For `Cc1ccccc1-c1nc(-c2cccc(N)c2)nn1C` [Example 34, 1-Methyl-3-(3-aminophenyl)-5-(o-tolyl)-1,2,4-triazole], the ED50 (mice [1]) was 30 mg/kg, the antianxiety effect (rats) was “remarkable antianxiety effect” and the LD50 (Toxicity (LD50); mice, read-out: Toxicity LD50) was 200 mg/kg. For the same molecule, the minimal effective dose (mice [2]; mice, complete hypnosis) was 60 mg/kg and the ED50 (mice [3]) was 20 mg/kg.

For `Cn1nc(-c2cccc(Cl)c2)nc1-c1ccccc1CO` [Example 3], the ED50 (mice [1]) was 30 mg/kg, the LD50 (Toxicity (LD50); mice, read-out: Toxicity LD50) was 500 mg/kg and the minimal effective dose (mice [2]; mice, complete hypnosis) was 200 mg/kg. For the same molecule, the ED50 (mice [3]) was 10 mg/kg.

In the case of `Cc1ccccc1-c1nc(-c2ccccc2)nn1C` [31(42), 1-Methyl-5-(o-tolyl)-3-phenyl-1,2,4-triazole], the ED50 (mice [1]) was 60 mg/kg, the LD50 (Toxicity (LD50); mice, read-out: Toxicity LD50) was greater than 1000 mg/kg and the minimal effective dose (mice [2]; mice, complete hypnosis) was 300 mg/kg. For the same molecule, the ED50 (mice [3]) was 50 mg/kg.

With `Cc1ccccc1-c1nc(-c2cccc(Cl)c2)nn1C` [45(55), 1-Methyl-3-(3-chlorophenyl)-5-(o-tolyl)-1,2,4-triazole] the ED50 (mice [1]) was 30 mg/kg, the antianxiety effect (rats) was “remarkable antianxiety effect” and the LD50 (Toxicity (LD50); mice, read-out: Toxicity LD50) was 700 mg/kg. It also gave a minimal effective dose (mice [2]; mice, complete hypnosis) of 300 mg/kg and an ED50 (mice [3]) of 50 mg/kg.

`Cn1nc(-c2ccc3c(c2)OCO3)nc1-c1ccccc1CO` [Example 14] showed an ED50 (mice [1]; [4]) of 80 mg/kg, an LD50 (Toxicity (LD50)) greater than 1000 mg/kg and a minimal effective dose (mice [2]; mice, complete hypnosis) of 300 mg/kg. For the same molecule, the ED50 (mice [3]; [4]) was 80 mg/kg.

For `COc1cccc(-c2nc(-c3ccccc3CO)n(C)n2)c1` [Example 9], the ED50 (mice [1]; [4]) was 60 mg/kg, the LD50 (Toxicity (LD50)) was 1000 mg/kg and the minimal effective dose (mice [2]; mice, complete hypnosis) was 300 mg/kg. The ED50 (mice [3]; [4]) was 60 mg/kg.

Work on `Cc1ccccc1-c1nc(-c2ccccc2CO)n(C)n1` [Example 6, 1-methyl-3-(o-tolyl)-5-(2-hydroxymethylphenyl)-1,2,4-triazole] yielded an ED50 (mice [1]) of 50 mg/kg, an LD50 (Toxicity (LD50); mice, read-out: Toxicity LD50) of 1000 mg/kg and a minimal effective dose (mice [2]; mice, complete hypnosis) of 600 mg/kg. For the same molecule, the ED50 (mice [3]) was 25 mg/kg.

Work on `Cn1nc(-c2cccc(F)c2)nc1-c1ccccc1CO` [Example 5] yielded an ED50 (mice [1]) of 30 mg/kg, an LD50 (Toxicity (LD50); mice, read-out: Toxicity LD50) of 400 mg/kg and a minimal effective dose (mice [2]; mice, complete hypnosis) of 150 mg/kg. For the same molecule, the ED50 (mice [3]) was 50 mg/kg.

`Cn1nc(-c2ccccc2)nc1-c1ccc(Cl)cc1` [Compound B, 1-methyl-3-phenyl-5-(p-chlorophenyl)-1,2,4-triazole, reference compound] showed an ED50 (mice [1]; [4]) greater than 300 mg/kg, an LD50 (Toxicity (LD50); mice, read-out: Toxicity LD50) greater than 1000 mg/kg and a minimal effective dose (mice [2]; mice, complete hypnosis) greater than 600 mg/kg. For the same molecule, the ED50 (mice [3]; [4]) was greater than 300 mg/kg.

Molecule `Cc1cccc(-c2nc(-c3ccccc3CO)n(C)n2)c1` [Example 7] has an ED50 (mice [1]; [4]) of 30 mg/kg, an LD50 (Toxicity (LD50)) of 500 mg/kg and a minimal effective dose (mice [2]; mice, complete hypnosis) of 80 mg/kg. For the same molecule, the ED50 (mice [3]; [4]) was 20 mg/kg.

`Cn1nc(-c2cccc([N+](=O)[O-])c2)nc1-c1ccccc1CO` [Example 10, 1-methyl-3-(3-nitrophenyl)-5-(2-hydroxymethylphenyl)-1,2,4-triazole] gave an ED50 (mice [1]; [4]) of 60 mg/kg, an LD50 (Toxicity (LD50); mice, read-out: Toxicity LD50) of 1000 mg/kg and a minimal effective dose (mice [2]; mice, complete hypnosis) of 300 mg/kg. For the same molecule, the ED50 (mice [3]; [4]) was 40 mg/kg.

`Cc1cccc(-c2nc(-c3ccccc3C)n(C)n2)c1` [32(56), 1-Methyl-3-(m-tolyl)-5-(o-tolyl)-1,2,4-triazole] gave an ED50 (mice [1]) of 30 mg/kg, an LD50 (Toxicity (LD50); mice, read-out: Toxicity LD50) greater than 1000 mg/kg and a minimal effective dose (mice [2]; mice, complete hypnosis) of 200 mg/kg. For the same molecule, the ED50 (mice [3]) was 20 mg/kg.

Molecule `COc1cccc(-c2nc(-c3ccccc3C)n(C)n2)c1` [Example 35, 1-Methyl-3-(3-methoxyphenyl)-5-(o-tolyl)-1,2,4-triazole] has an ED50 (mice [1]) of 60 mg/kg, an LD50 (Toxicity (LD50); mice, read-out: Toxicity LD50) of 1000 mg/kg and a minimal effective dose (mice [2]; mice, complete hypnosis) of 300 mg/kg. For the same molecule, the ED50 (mice [3]) was 50 mg/kg.

Work on `Cn1nc(-c2ccccc2)nc1-c1ccccc1CO` [Example 1, 5-(2-Hydroxymethylphenyl)-1-methyl-3-phenyl-1,2,4-triazole] yielded an ED50 (mice [1]; [4]) of 60 mg/kg, an LD50 (Toxicity (LD50); mice, read-out: Toxicity LD50) of 1000 mg/kg and a minimal effective dose (mice [2]; mice, complete hypnosis) of 300 mg/kg. The ED50 (mice [3]; [4]) was 100 mg/kg.

Molecule `Cc1ccc(-c2nc(-c3ccccc3CO)n(C)n2)cc1` [Example 8] has an ED50 (mice [1]; [4]) of 80 mg/kg, an LD50 (Toxicity (LD50)) greater than 1000 mg/kg and a minimal effective dose (mice [2]; mice, complete hypnosis) of 600 mg/kg. It also gave an ED50 (mice [3]; [4]) of 100 mg/kg.

`Cn1nc(-c2ccccc2Cl)nc1-c1ccccc1CO` [Example 2] gave an ED50 (mice [1]) of 60 mg/kg, an LD50 (Toxicity (LD50); mice, read-out: Toxicity LD50) of 500 mg/kg and a minimal effective dose (mice [2]; mice, complete hypnosis) of 300 mg/kg. For the same molecule, the ED50 (mice [3]) was 60 mg/kg.

`Cn1nc(-c2ccccc2)nc1-c1ccccc1` [Compound A, 1-methyl-3,5-diphenyl-1,2,4-triazole, reference compound] showed an ED50 (mice [1]) greater than 100 mg/kg, an LD50 (Toxicity (LD50); mice, read-out: Toxicity LD50) of 1000 mg/kg and a minimal effective dose (mice [2]) greater than 1000 mg/kg. For the same molecule, the ED50 (mice [3]) was 300 mg/kg.
